A value given as a limit tells only on which side of the number the result lay.

The target of data set [1] is T1, P2X7 receptor (IL-1β release from THP-1 cells) (Homo sapiens, UniProt Q99572).
T1 construct: host or cells: THP-1 cells differentiated with LPS and IFN-γ
T1 sequence (Q99572 1-595): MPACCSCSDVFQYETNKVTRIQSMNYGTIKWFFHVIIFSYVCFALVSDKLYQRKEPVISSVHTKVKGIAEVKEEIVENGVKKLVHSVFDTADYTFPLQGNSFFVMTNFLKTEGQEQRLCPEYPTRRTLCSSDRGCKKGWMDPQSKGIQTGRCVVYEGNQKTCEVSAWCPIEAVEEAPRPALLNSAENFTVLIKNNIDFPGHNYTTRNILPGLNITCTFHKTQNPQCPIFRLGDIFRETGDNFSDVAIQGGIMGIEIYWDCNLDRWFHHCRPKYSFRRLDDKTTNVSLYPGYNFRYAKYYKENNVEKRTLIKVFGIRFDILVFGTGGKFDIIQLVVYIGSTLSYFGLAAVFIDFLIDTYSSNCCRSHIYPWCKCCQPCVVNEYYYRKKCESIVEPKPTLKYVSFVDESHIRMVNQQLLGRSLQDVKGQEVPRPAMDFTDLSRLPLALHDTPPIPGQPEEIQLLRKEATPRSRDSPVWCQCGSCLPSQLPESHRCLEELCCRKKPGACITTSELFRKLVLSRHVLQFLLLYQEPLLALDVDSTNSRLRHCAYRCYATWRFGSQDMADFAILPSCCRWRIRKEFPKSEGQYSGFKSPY
The data set is described as follows: IL-1β release assay in differentiated THP-1 cells stimulated with BzATP (Example 9). It counts as cell-based.

Data set [2] is described as follows: Pharmacokinetic evaluation following intravenous and oral administration in rats. The format is in vivo. As to conditions: rat, plasma; male Sprague-Dawley rats; PO 1 to 5 mg/kg vs IV, AUCinf dose-normalized; mean % F. The protocol:
Male Sprague-Dawley rats are acclimatized for at least 24 hours prior to experiment initiation. During the acclimation period, all animals receive food and water ad libitum. However, food but not water is removed from the animals' cages at least 12 hours before initiation of the experiment. During the first 3 hours of experimentation, the animals receive only water ad libitum. At least three animals each are tested for intravenous and oral dosage. For intravenous formulation, compounds were dissolved (0.25 to 1 mg/mL) in a mixture of 3% dimethyl sulfoxide, 40% PEG 400 and the rest percentage of 40% Captisol in water (w/v). The animals are weighed before dosing. The determined body weight is used to calculate the dose volume for each animal.
Dose volume (mL/kg)=1 mg/kg/formulation concentration (mg/mL)
In instances where the formulation concentrations were less than 0.5 mg/mL, the dosing volume is about 2 mL/kg.
For oral formulation, compounds of this invention are suspended (0.5 to 0.75 mg/mL) in a mixture of 5% of 10% Tween 80 in water (v/v) and 95% of 0.5% methyl cellulose in water (w/v). PO rats are typically dosed through oral gavage following the same dose volume formula as IV to achieve a dose level of 1 to 5 mg/kg. For IV dosing, blood samples are collected (using a pre-heparinized syringe) via the jugular vein catheter at 2, 5, 15, 30, 60, 120, 180, 300, 480, and 1440 minutes post dosing. For PO dosing, blood samples are collected (using a pre-heparinized syringe) via the jugular vein catheter before dosing and at 5, 15, 30, 60, 120, 180, 300, 480, and 1440 minutes post dosing. About 250 uL of blood is obtained at each time point from the animal. Equal volumes of 0.9% normal saline are replaced to prevent dehydration. The whole blood samples are maintained on ice until centrifugation. Blood samples are then centrifuged at 14,000 rpm for 10 minutes at 4° C. and the upper plasma layer transferred into a clean vial and stored at −80° C. The resulting plasma samples are then analyzed by liquid chromatography-tandem mass spectrometry. Following the measurement of plasma samples and dosing solutions, plasma concentration-time curve is plotted. Plasma exposure is calculated as the area under the concentration-time curve extrapolated to time infinite (AUCinf). The AUCinf is averaged and the oral bioavailability (% F) for individual animal is calculated as:
AUCinf(PO)/AUCinf(IV), normalized to their respective dose levels.
The % F is reported as the mean % F of all animals dosed orally with the compound of the invention at the specified level (Table 4).

Data set [3] is described as follows: Half-life in human liver microsomes (HLM). It counts as in vitro ADME. The following applies: human liver microsomes (HLM, HL101); human liver microsomes 0.78 mg/mL, 1 μM compound, NADPH, pH 7.4, 37° C. In general terms: Microsomes from liver hold many membrane-bound enzymes, among them those of drug oxidation.
Procedure: Test compounds (1 μM) are incubated with 3.3 mM MgCl2 and 0.78 mg/mL HLM (HL101) in 100 mM potassium phosphate buffer (pH 7.4) at 37° C. on the 96-deep well plate. The reaction mixture is split into two groups, a non-P450 and a P450 group. NADPH is only added to the reaction mixture of the P450 group. An aliquot of samples of P450 group is collected at 0, 10, 30, and 60 min time point, where 0 min time point indicated the time when NADPH is added into the reaction mixture of P450 group. […] Collected aliquots are extracted with acetonitrile solution containing an internal standard. […] The compound concentration in supernatant is measured by LC/MS/MS system.
The half-life value is obtained by plotting the natural logarithm of the peak area ratio of compounds/internal standard versus time. The slope of the line of best fit through the points yields the rate of metabolism (k). This is converted to a half-life value using following equations:

Usually IC50 stands for the concentration needed to halve the response being measured. What is called bioavailability is the share of a dose that reaches the circulation, judged against a reference dose that is usually intravenous. Read a low bioavailability as poor availability. What is called half-life is how long it takes for the measured level to halve. With `C[C@H](C(N)=O)n1ccc2c(NC(=O)CC34CC5CC(CC(C5)C3)C4)cccc2c1=O` [Compound 559], the inhibition at 0.3 µM in data set [1] (0.3 μM concentration, BzATP 250 uM, read-out: IL-1β % Inhib. @ 0.3 or 0.1 μM) is greater than 76%. The IC50 in data set [1] (released IL-1β as in Example 9, four parameter logistic fit) was determined as 0.365 nM. In addition, the bioavailability in data set [2] fell in the range of 0 to 25%. The molecule also gave a half-life at 1 μM in data set [3] of 16.2 min.

(Values after patent US20100184802A1, “Bicycloheteroaryl Compounds as P2X7 Modulators and Uses Thereof” (priority 2006, published 2010).)
